Experimental findings from patent US20250147039A1, “Compounds for complexation of rare earth elements and/or s-, p-, d- block metals, their coordination compounds, peptide conjugates, method of their preparation and use thereof” (USTAV ORGANICKE CHEMIE A BIOCHEMIE AV CR V.V.I., priority 2021, published 2025) are described below.

SMILES strings stand for the structures.

Series [1] in a line: Dissociation of chelates in aq. 0.1M HCl at RT (acid decomplexation kinetic inertness) (Chart 20). It counts as physicochemical.
A short description of series [2]: Dissociation of chelates in aq. 1.0M HCl at 80° C. (acid decomplexation kinetic inertness) (Chart 18). Type of series: physicochemical.
Series [3] is described as follows: Dissociation of chelates in aq. 6.0M HCl at 80° C. (acid decomplexation kinetic inertness) (Chart 17). It counts as physicochemical.
Series [4] in a line: Dissociation of chelates in aq. 0.1M HCl at 80° C. (acid decomplexation kinetic inertness) (Chart 19). Type of series: physicochemical.
Series [5] is described as follows: Alkali metal dependent formation of 1,5-cz-Lig and 1,4-cz-Lig isomers from Lig at pH 10.2 (Chart 14). Type of series: physicochemical. Particulars: B: 1 day at 80° C., Borate/(M^I)2CO3 buffer pH 10.2.
A short description of series [6]: Formation of 1,5-cz-[M(Lig)] from Lig and M^III ions (metal dependent click-zip) (Charts 4, 5). Type of series: physicochemical. The following applies: MOPS/NaOH buffer pH 7.0, TD728, TD827 in 50% i-PrOH; for conversion to 1,5-cz-[M(Lig)], Y^III: TD714 sum of two diastereoisomers.
A short description of series [7]: Formation of 1,5-cz-[Ln(Lig)] from Lig and Ln^III ions (metal dependent click-zip), MOPS/NaOH buffer pH 7.0, analytical HPLC (Charts 1, 2). Particulars: MOPS/NaOH buffer pH 7.0.
Setting [8] is: visible analyte free precipitate.

In the case of `O=C1C[N@@]2CC[N@]3CC[N@@](CC[N@](CC2)Cc2cccc(n2)-c2cn(nn2)Cc2cc(-c4ccccc4)cc(n2)C3)CC(=O)[O][Gd][O]1` [TD875], the “fraction of intact chelate” value in series [1] (1 month) stood at 0%; in series [1] (1 week), 6%; in series [1] (1 hour), 98%; in series [1] (1 day) it was 58%; in series [2] (1 month), 0%; in series [2] (1 week), 0%. In addition, the “fraction of intact chelate” value in series [2] (1 hour), in series [2] (1 day), in series [3] (1 month), in series [3] (1 week), in series [3] (1 hour) and in series [3] (1 day) was 0% each time. Further, the “fraction of intact chelate” value in series [4] (1 month), in series [4] (1 week), in series [4] (1 hour) and in series [4] (1 day) was 0% each time.
`O=C1C[N@@]2CC[N@]3CC[N@@](CC[N@](CC2)Cc2cccc(n2)-c2cnnn2Cc2cc(-c4ccccc4)cc(n2)C3)CC(=O)[O][Cd][O]1` [TD880]: the “fraction of intact chelate” value in series [1] (1 month) is 100%; in series [1] (1 week), 100%; in series [1] (1 hour), 100%; in series [1] (1 day), 100%; in series [2] (1 month) it was 63%; in series [2] (1 week), 90%. The “fraction of intact chelate” value is listed as 100% in series [2] (1 hour); 99% in series [2] (1 day); 0% in series [3] (1 month); 0% in series [3] (1 week); 43% in series [3] (1 hour); 0% in series [3] (1 day). Besides, the “fraction of intact chelate” value in series [4] (1 month), in series [4] (1 week), in series [4] (1 hour) and in series [4] (1 day) was 100% throughout.
Turning to `O=C1C[N@@]2CC[N@]3CC[N@@](CC[N@](CC2)Cc2cccc(n2)-c2cnnn2Cc2cc(-c4ccccc4)cc(n2)C3)CC(=O)[O][Sm][O]1` [TD867], the “fraction of intact chelate” value was found to be 96% in series [1] (1 month); 99% in series [1] (1 week); 100% in series [1] (1 hour); 100% in series [1] (1 day); 0% in series [2] (1 month); 0% in series [2] (1 week). For the same compound, the “fraction of intact chelate” value was 62% in series [2] (1 hour); 0% in series [2] (1 day); 0% in series [3] (1 month); 0% in series [3] (1 week); 0% in series [3] (1 hour); 0% in series [3] (1 day). Moreover, the “fraction of intact chelate” value in series [4] (1 month) stood at 1%; in series [4] (1 week) it was 35%; in series [4] (1 hour), 99%; in series [4] (1 day), 86%.
Turning to `O=C1C[N@@]2CC[N@]3CC[N@@](CC[N@](CC2)Cc2cccc(n2)-c2cnnn2Cc2cc(-c4ccccc4)cc(n2)C3)CC(=O)[O][Ho][O]1` [TD648], the “fraction of intact chelate” value in series [1] (1 month) was 100%; in series [1] (1 week), 100%; in series [1] (1 hour) it was 100%; in series [1] (1 day), 100%; in series [2] (1 month) it was 96%; in series [2] (1 week), 99%. Further, the “fraction of intact chelate” value amounted to 100% in series [2] (1 hour); 100% in series [2] (1 day); 0% in series [3] (1 month); 17% in series [3] (1 week); 99% in series [3] (1 hour); 81% in series [3] (1 day). In addition, the “fraction of intact chelate” value in series [4] (1 month), in series [4] (1 week), in series [4] (1 hour) and in series [4] (1 day) was 100% throughout.
In the case of `C#Cc1cccc(CN2CCN(CP(=O)(O)OCC)CCN(Cc3cccc(CN=[N+]=[N-])n3)CCN(CP(=O)(O)OCC)CC2)n1` [TD582], in series [5], the “conversion to 1,4-cz-Lig isomer, Cs^I” value was found to be 26%; the “conversion to 1,4-cz-Lig isomer, K^I” value turned out to be 25%; the “conversion to 1,4-cz-Lig isomer, Na^I” value is listed as 2%; the “conversion to 1,4-cz-Lig isomer, Rb^I” value was 25%. Besides, in series [5], the “conversion to 1,5-cz-Lig isomer, Cs^I” value is 10%; the “conversion to 1,5-cz-Lig isomer, K^I” value is reported as 11%; the “conversion to 1,5-cz-Lig isomer, Na^I” value is listed as 69%; the “conversion to 1,5-cz-Lig isomer, Rb^I” value worked out at 10%. In series [5] (setting [8]), the “conversion to 1,4-cz-Lig isomer, Li^I” value was found to be 3% and the “conversion to 1,5-cz-Lig isomer, Li^I” value came out at 53%. In series [6] (1 week at 80° C.), the “conversion to 1,5-cz-[M(Lig)], Sc^III” value came to 0% and the “conversion to 1,5-cz-[M(Lig)], Y^III” value is 68%. In addition, in series [6] (1 hour at 80° C.), the “conversion to 1,5-cz-[M(Lig)], Sc^III” value is 0% and the “conversion to 1,5-cz-[M(Lig)], Y^III” value is on record as 11%. Moreover, in series [7] (after 1 week at 80° C.), the “conversion to 1,5-cz-[Ln(Lig)], Ce^III” value was 0%; the “conversion to 1,5-cz-[Ln(Lig)], Dy^III” value is listed as 85%; the “conversion to 1,5-cz-[Ln(Lig)], Er^III” value is 74%; the “conversion to 1,5-cz-[Ln(Lig)], Eu^III” value is on record as 87%. Also, in series [7] (after 1 week at 80° C.), the “conversion to 1,5-cz-[Ln(Lig)], Gd^III” value is reported as 86%; the “conversion to 1,5-cz-[Ln(Lig)], Ho^III” value is on record as 79%; the “conversion to 1,5-cz-[Ln(Lig)], La^III” value came to 0%; the “conversion to 1,5-cz-[Ln(Lig)], Lu^III” value was 26%. Also, in series [7] (after 1 week at 80° C.), the “conversion to 1,5-cz-[Ln(Lig)], Nd^III” value is 60%; the “conversion to 1,5-cz-[Ln(Lig)], Pr^III” value stood at 17%; the “conversion to 1,5-cz-[Ln(Lig)], Sm^III” value is 86%; the “conversion to 1,5-cz-[Ln(Lig)], Tb^III” value came to 82%. In addition, in series [7] (after 1 week at 80° C.), the “conversion to 1,5-cz-[Ln(Lig)], Tm^III” value worked out at 68% and the “conversion to 1,5-cz-[Ln(Lig)], Yb^III” value stood at 59%. Also, in series [7] (after 1 hour at 80° C.), the “conversion to 1,5-cz-[Ln(Lig)], Ce^III” value stood at 0%; the “conversion to 1,5-cz-[Ln(Lig)], Dy^III” value came to 18%; the “conversion to 1,5-cz-[Ln(Lig)], Er^III” value came out at 15%; the “conversion to 1,5-cz-[Ln(Lig)], Eu^III” value is 14%. Also, in series [7] (after 1 hour at 80° C.), the “conversion to 1,5-cz-[Ln(Lig)], Gd^III” value was determined as 15%; the “conversion to 1,5-cz-[Ln(Lig)], Ho^III” value is given as 16%; the “conversion to 1,5-cz-[Ln(Lig)], La^III” value was 0%; the “conversion to 1,5-cz-[Ln(Lig)], Lu^III” value stood at 5%. Further, in series [7] (after 1 hour at 80° C.), the “conversion to 1,5-cz-[Ln(Lig)], Nd^III” value is given as 6%; the “conversion to 1,5-cz-[Ln(Lig)], Pr^III” value is reported as 5%; the “conversion to 1,5-cz-[Ln(Lig)], Sm^III” value worked out at 12%; the “conversion to 1,5-cz-[Ln(Lig)], Tb^III” value worked out at 18%. In addition, in series [7] (after 1 hour at 80° C.), the “conversion to 1,5-cz-[Ln(Lig)], Tm^III” value came out at 14% and the “conversion to 1,5-cz-[Ln(Lig)], Yb^III” value amounted to 12%.
For `NCc1nnn2c1-c1cccc(n1)C[N@]1CC[N@]3CC[N@@](CC[N@@](CC1)CC(=O)[O][Lu][O]C(=O)C3)Cc1cc(-c3ccccc3)cc(n1)C2` [TD735], the “fraction of intact chelate” value stood at 98% in series [3] (1 month), 99% in series [3] (1 week), 100% in series [3] (1 hour) and 100% in series [3] (1 day).
With `O=C1C[N@@]2CC[N@]3CC[N@@](CC[N@](CC2)Cc2cccc(n2)-c2cnnn2Cc2cc(-c4ccc(C(=O)O)cc4)cc(n2)C3)CC(=O)[O][Lu][O]1` [TD748], the “fraction of intact chelate” value in series [3] (1 month) is 97%; in series [3] (1 week), 100%; in series [3] (1 hour) it was 100%; in series [3] (1 day), 100%.
Turning to `O=C1CN2CCN3CCN(CCN(CC2)Cc2cccc(n2)-c2cnnn2Cc2cccc(n2)C3)CP(=O)(O)[O][Lu][O]1` [TD734], the “fraction of intact chelate” value in series [3] (1 month) is reported as 95%; in series [3] (1 week), 98%; in series [3] (1 hour), 100%; in series [3] (1 day), 100%.
